What was measured:
[1] = system: A549; assay: Cell cycle arrest in human A549 cells assessed as accumulation of cells at G0/G1 phase at 2 uM after 24 hrs by propidium iodide staining-based flow cytometric analysis (reference value: 67.62%); type: functional
[2] = system: A549; assay: Cell cycle arrest in human A549 cells assessed as accumulation of cells at S phase at 2 uM after 24 hrs by propidium iodide staining-based flow cytometric analysis (reference value: 25.26%); type: functional
[3] = system: A549; assay: Cell cycle arrest in human A549 cells assessed as accumulation of cells at pre-G1 phase at 2 uM after […] by propidium iodide staining-based flow cytometric analysis (reference value: 0.92%); type: functional
[4] = system: A549; assay: Induction of apoptosis in human A549 cells assessed as viable cells at 2 uM after 24 hrs by Annexin V-FITC/propidium iodide staining-based flow cytometric analysis (reference value: 97.5%); type: functional; conditions: A549, 24 h, read-out: Activity
[5] = system: A549; assay: Induction of apoptosis in human A549 cells assessed as caspase9 expression at 7.4 uM after 2 hrs by ELISA (reference value: 0.1726 ng/ml); type: functional
[6] = system: A549; assay: Induction of apoptosis in human A549 cells 24 hrs by propidium iodide staining-based flow cytometric analysis (reference value: 0.92%); type: functional
[7] = system: A549; assay: Cell cycle arrest in human A549 cells assessed as accumulation of cells at G2/M phase at 2 uM after 24 hrs by propidium iodide staining-based flow cytometric analysis (reference value: 6.2%); type: functional
[8] = system: A549; assay: Induction of apoptosis in human A549 cells assessed as necrotic cells at 2 uM after 24 hrs by Annexin V-FITC/propidium iodide staining-based flow cytometric analysis (reference value: 0.07%); type: functional
[9] = system: A549; assay: Induction of apoptosis in human A549 cells assessed as late apoptotic cells at 2 uM after 24 hrs by Annexin V-FITC/propidium iodide staining-based flow cytometric analysis (reference value: 0.33%); type: functional
[10] = system: A549; assay: Induction of apoptosis in human A549 cells assessed as caspase3 expression at 7.4 uM after 2 hrs by ELISA (reference value: 53.45 ng/ml); type: functional
[11] = system: A549; assay: Induction of apoptosis in human A549 cells assessed as early apoptotic cells at 2 uM after 24 hrs by Annexin V-FITC/propidium iodide staining-based flow cytometric analysis (reference value: 0.52%); type: functional
[12] = system: PC-3; assay: cells; conditions: Homo sapiens, PC-3, 24 h
Description: Cytotoxicity against human PC3 cells after 24 hrs by MTT assay

[13] = system: HCT-116; assay: cells; conditions: Homo sapiens, HCT-116, 24 h
Description: Cytotoxicity against human HCT116 cells after 24 hrs by MTT assay

[14] = system: MCF7; assay: Cytotoxicity against human MCF7 cells after 24 hrs by MTT assay; type: functional, cell-based; conditions: MCF7, 24 h
[15] = system: PC-3; assay: Antiproliferative activity against human PC3 cells assessed as growth inhibition at 10 uM after 48 hrs by sulforhodamine B assay relative to control; type: functional; conditions: PC-3, 48 h, read-out: GI
[16] = system: NCI-H460; assay: Antiproliferative activity against human NCI-H460 cells assessed as growth inhibition at 10 uM after 48 hrs by sulforhodamine B assay relative to control; type: functional; conditions: NCI-H460, 48 h, read-out: GI
[17] = Cytotoxicity against human WPE1-NA22 cells; type: cell-based
[18] = system: HeLa; assay: Cytotoxicity against human HeLa cells; type: functional, cell-based
[19] = system: K562; assay: Antiproliferative activity against human K562 cells assessed as growth inhibition at 10 uM after 48 hrs by sulforhodamine B assay relative to control; type: functional; conditions: K562, 48 h, read-out: GI
[20] = system: A549; assay: Antiproliferative activity against human A549/ATCC cells assessed as growth inhibition at 10 uM after 48 hrs by sulforhodamine B assay relative to control; type: functional; conditions: A549, 48 h, read-out: GI
[21] = system: MCF7; assay: Antiproliferative activity against human MCF7 cells assessed as growth inhibition at 10 uM after 48 hrs by sulforhodamine B assay relative to control; type: functional; conditions: MCF7, 48 h, read-out: GI
[22] = system: A549; assay: Potency index, ratio of compound activity to 5-FU activity for caspase3 expression in human A549 cells; type: functional
[23] = system: HL-60(TB); assay: Antiproliferative activity against human HL-60(TB) cells assessed as growth inhibition at 10 uM after 48 hrs by sulforhodamine B assay relative to control; type: functional; conditions: HL-60, 48 h, read-out: GI
[24] = system: HCT-116; assay: Antiproliferative activity against human HCT116 cells assessed as growth inhibition at 10 uM after 48 hrs by sulforhodamine B assay relative to control; type: functional; conditions: HCT-116, 48 h, read-out: GI
[25] = system: UO-31; assay: Antiproliferative activity against human UO31 cells assessed as growth inhibition at 10 uM after 48 hrs by sulforhodamine B assay relative to control; type: functional; conditions: UO-31, 48 h, read-out: GI
[26] = system: T47D; assay: Antiproliferative activity against human T47D cells assessed as growth inhibition at 10 uM after 48 hrs by sulforhodamine B assay relative to control; type: functional; conditions: read-out: GI
[27] = system: SR; assay: Antiproliferative activity against human SR cells assessed as growth inhibition at 10 uM after 48 hrs by sulforhodamine B assay relative to control; type: functional; conditions: read-out: GI
[28] = system: UACC-62; assay: Antiproliferative activity against human UACC62 cells assessed as growth inhibition at 10 uM after 48 hrs by sulforhodamine B assay relative to control; type: functional; conditions: UACC-62, 48 h, read-out: GI
[29] = system: OVCAR-4; assay: Antiproliferative activity against human OVCAR4 cells assessed as growth inhibition at 10 uM after 48 hrs by sulforhodamine B assay relative to control; type: functional; conditions: OVCAR-4, 48 h, read-out: GI
[30] = system: LOX IMVI; assay: Antiproliferative activity against human LOXIMVI cells assessed as growth inhibition at 10 uM after 48 hrs by sulforhodamine B assay relative to control; type: functional; conditions: read-out: GI
[31] = system: CAKI-1; assay: Antiproliferative activity against human Caki1 cells assessed as growth inhibition at 10 uM after 48 hrs by sulforhodamine B assay relative to control; type: functional; conditions: CAKI-1, 48 h, read-out: GI
[32] = system: MDA-MB-468; assay: Antiproliferative activity against human MDA-MB-468 cells assessed as growth inhibition at 10 uM after 48 hrs by sulforhodamine B assay relative to control; type: functional; conditions: MDA-MB-468, 48 h, read-out: GI
[33] = system: A549; assay: Induction of apoptosis in human A549 cells assessed as caspase9 expression at 3.04 uM after 2 hrs by ELISA (reference value: 0.1726 ng/ml); type: functional
[34] = target: T1, Serine/threonine-protein kinase mTOR (Homo sapiens, UniProt P42345); assay: Inhibition of mTOR (unknown origin) incubated for 1 hr by ELISA relative to control; conditions: concentration not given here
[35] = system: SK-MEL-5; assay: Antiproliferative activity against human SK-MEL-5 cells assessed as growth inhibition at 10 uM after 48 hrs by sulforhodamine B assay relative to control; type: functional; conditions: SK-MEL-5, 48 h, read-out: GI
[36] = system: BJ; assay: Cytotoxicity against human BJ cells; type: cell-based
[37] = system: SF-295; assay: Antiproliferative activity against human SF295 cells assessed as growth inhibition at 10 uM after 48 hrs by sulforhodamine B assay relative to control; type: functional; conditions: SF-295, 48 h, read-out: GI
[38] = system: A549; assay: Induction of apoptosis in human A549 cells assessed as caspase3 expression at 3.04 uM after 2 hrs by ELISA (reference value: 53.45 ng/ml); type: functional
[39] = system: NCI/ADR-RES; assay: Antiproliferative activity against human NCI/ADR-RES cells assessed as growth inhibition at 10 uM after 48 hrs by sulforhodamine B assay relative to control; type: functional; conditions: read-out: GI
[40] = system: MRC5; assay: Cytotoxicity against human MRC5 cells; type: cell-based
[41] = system: HCT-15; assay: Antiproliferative activity against human HCT15 cells assessed as growth inhibition at 10 uM after 48 hrs by sulforhodamine B assay relative to control; type: functional; conditions: HCT-15, 48 h, read-out: GI
[42] = system: ACHN; assay: Antiproliferative activity against human ACHN cells assessed as growth inhibition at 10 uM after 48 hrs by sulforhodamine B assay relative to control; type: functional; conditions: read-out: GI
[43] = system: MOLT-4; assay: Antiproliferative activity against human MOLT4 cells assessed as growth inhibition at 10 uM after 48 hrs by sulforhodamine B assay relative to control; type: functional; conditions: MOLT-4, 48 h, read-out: GI
[44] = system: NCI-H522; assay: Antiproliferative activity against human NCI-H522 cells assessed as growth inhibition at 10 uM after 48 hrs by sulforhodamine B assay relative to control; type: functional; conditions: NCI-H522, 48 h, read-out: GI
[45] = target: T1, Serine/threonine-protein kinase mTOR; assay: Inhibition of mTOR (unknown origin) incubated for 1 hr by ELISA
[46] = system: NCI-H322M; assay: Antiproliferative activity against human NCI-H322M cells assessed as growth inhibition at 10 uM after 48 hrs by sulforhodamine B assay relative to control; type: functional; conditions: read-out: GI
[47] = system: A549; assay: Potency index, ratio of compound activity to 5-FU activity for caspase9 expression in human A549 cells; type: functional

O=c1[nH]cc(F)c(=O)[nH]1 [FLUOROURACIL]
Activity [1]: 47.36%
Activity [2]: 16.08%
Activity [3]: 15.52%
viability at 2 µM [4]: 82.7%
Activity [5]: 16.84 ng/mL
Activity [6]: 15.52%
Activity [7]: 21.04%
Activity [8]: 2.52%
Activity [9]: 6.59%
Activity [10]: 582.1 ng/mL
Activity [11]: 6.37%

CCOC(=O)C1=C(CSC(=S)N2CCN(c3ccccc3OCC)CC2)N(C)C(=O)NC1c1ccccc1 (stereo not drawn)
IC50 [12]: 72.3 µM
IC50 [13]: 67.6 µM
IC50 [14]: 53.8 µM

CCOC(=O)C1=C(CSC(=S)N(C2CCCCC2)C2CCCCC2)N(C)C(=O)NC1c1ccccc1 (stereo not drawn)
inhibition of growth at 10 µM [15]: 79%
Activity [1]: 58.25%
inhibition of growth at 10 µM [16]: 88%
IC50 [17]: 32.1 µM
IC50 [18]: 1.85 µM
Activity [2]: 21.95%
Activity [3]: 7.39%
viability at 2 µM [4]: 90.7%
inhibition of growth at 10 µM [19]: 65%
inhibition of growth at 10 µM [20]: 53%
inhibition of growth at 10 µM [21]: 54%
Ratio [22]: 10
inhibition of growth at 10 µM [23]: 85%
Activity [6]: 7.39%
inhibition of growth at 10 µM [24]: 74%
inhibition of growth at 10 µM [25]: 56%
inhibition of growth at 10 µM [26]: 50%
inhibition of growth at 10 µM [27]: 71%
Activity [7]: 12.41%
inhibition of growth at 10 µM [28]: 54%
inhibition of growth at 10 µM [29]: 56%
inhibition of growth at 10 µM [30]: 67%
inhibition of growth at 10 µM [31]: 75%
inhibition of growth at 10 µM [32]: 53%
Activity [33]: 18.14 ng/mL
inhibition [34]: 86.6%
inhibition of growth at 10 µM [35]: 86%
IC50 [36]: 18.2 µM
inhibition of growth at 10 µM [37]: 61%
Activity [38]: 560.4 ng/mL
inhibition of growth at 10 µM [39]: 37%
IC50 [40]: 32 µM
inhibition of growth at 10 µM [41]: 61%
Activity [8]: 0.81%
Activity [9]: 3.31%
inhibition of growth at 10 µM [42]: 63%
inhibition of growth at 10 µM [43]: 72%
inhibition of growth at 10 µM [44]: 42%
IC50 [45]: 0.64 µM
Activity [11]: 3.27%
inhibition of growth at 10 µM [46]: 9%
Ratio [47]: 100

CO[C@H]1C[C@@H]2CC[C@@H](C)[C@@](O)(O2)C(=O)C(=O)N2CCCC[C@H]2C(=O)O[C@H]([C@H](C)C[C@@H]2CC[C@@H](O)[C@H](OC)C2)CC(=O)[C@H](C)/C=C(\C)[C@@H](O)[C@@H](OC)C(=O)[C@H](C)C[C@H](C)/C=C/C=C/C=C/1C [SIROLIMUS]
IC50 [18]: 0.77 µM
inhibition [34]: 94.9%
